Tests used:
Assay in all cases: relative viability (nuclei count vs DMSO), 5 days (fraction); higher = more cells survive
JQ1 = compound: Cc1sc2c(c1C)C(c1ccc(Cl)cc1)=N[C@@H](CC(=O)OC(C)(C)C)c1nnc(C)n1-2 [JQ1]
In short: (§1)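 Nuclei counted with MetaXpress define viability as the ratio of treated to vehicle wells, given as a median across plates. The lung cancer cell lines were in 1536-well plates, pinned with five √10-spaced library-drug doses and imaged at 4× after 5 days and Hoechst staining. Plates passed with control CV below 25% and at least one doubling.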

Docetaxel = compound: CC(=O)O[C@@]12CO[C@@H]1C[C@H](O)[C@@]1(C)C(=O)[C@H](O)C3=C(C)[C@@H](OC(=O)[C@H](O)[C@@H](NC(=O)OC(C)(C)C)c4ccccc4)C[C@@](O)([C@@H](OC(=O)c4ccccc4)[C@H]21)C3(C)C [Docetaxel]
In short: as §1

Pimozide = compound: O=c1[nH]c2ccccc2n1C1CCN(CCCC(c2ccc(F)cc2)c2ccc(F)cc2)CC1 [Pimozide]
In short: as §1

Cytarabine = compound: Nc1ccn([C@@H]2O[C@H](CO)[C@@H](O)[C@@H]2O)c(=O)n1 [Cytarabine]
In short: as §1

[1] = compound: Cc1cnc(-c2cnc(NCCNc3ccc(C#N)cn3)nc2-c2ccc(Cl)cc2Cl)[nH]1
In short: as §1

CPI-613 = compound: O=C(O)CCCCC(CCSCc1ccccc1)SCc1ccccc1 [CPI-613]
In short: as §1

Tivozanib = compound: COc1cc2nccc(Oc3ccc(NC(=O)Nc4cc(C)on4)c(Cl)c3)c2cc1OC [Tivozanib]
In short: as §1

Cell Line | relative viability (JQ1; 0.04 µM) | relative viability (JQ1; 0.1265 µM) | relative viability (JQ1; 0.4 µM) | relative viability (JQ1; 1.265 µM) | relative viability (JQ1; 4 µM) | relative viability (Docetaxel; 0.0002 µM) | relative viability (Docetaxel; 0.000632 µM) | relative viability (Docetaxel; 0.002 µM) | relative viability (Docetaxel; 0.006325 µM) | relative viability (Docetaxel; 0.02 µM) | relative viability (Pimozide; 0.08 µM) | relative viability (Pimozide; 0.253 µM) | relative viability (Pimozide; 0.8 µM) | relative viability (Pimozide; 2.53 µM) | relative viability (Pimozide; 8 µM) | relative viability (Cytarabine; 0.005 µM) | relative viability (Cytarabine; 0.01581 µM) | relative viability (Cytarabine; 0.05 µM) | relative viability (Cytarabine; 0.1581 µM) | relative viability (Cytarabine; 0.5 µM) | relative viability ([1]; 0.08 µM) | relative viability ([1]; 0.8 µM) | relative viability ([1]; 2.53 µM) | relative viability (CPI-613; 5 µM) | relative viability (CPI-613; 15.81 µM) | relative viability (CPI-613; 50 µM) | relative viability (CPI-613; 158.11 µM) | relative viability (CPI-613; 500 µM) | relative viability (Tivozanib; 0.005 µM) | relative viability (Tivozanib; 0.01581 µM) | relative viability (Tivozanib; 0.05 µM) | relative viability (Tivozanib; 0.1581 µM) | relative viability (Tivozanib; 0.5 µM) | relative viability ([1]; 0.253 µM)
201T | 0.97 | 0.561 | 0.865 | 0.458 | 0.386 | 0.977 | 0.963 | 0.657 | 0.469 | 0.369 | 0.98 | 0.977 | 0.965 | 0.936 | 0.832 | 0.981 | 1.03 | 0.977 | 0.873 | 0.787 | 1.01 | 0.966 | 0.992 | 0.97 | 0.909 | 0.968 | 0.756 | 0.862 | 1.01 | 1.01 | 1.03 | 0.912 | 0.991 | –
A549 | 0.953 | 0.912 | 0.909 | 0.686 | 0.363 | 0.914 | 0.68 | 0.0907 | 0.0644 | 0.0347 | 0.96 | 0.89 | 0.981 | 0.952 | 0.874 | 0.861 | 0.682 | 0.391 | 0.101 | 0.0441 | 1.06 | 0.945 | 0.958 | 0.973 | 0.911 | 0.978 | 0.624 | 0.647 | 0.939 | 0.99 | 0.994 | 0.942 | 0.944 | 0.957
A-427 | 0.902 | 0.879 | 0.91 | 0.653 | 0.504 | 0.931 | 0.952 | 0.439 | 0.281 | 0.171 | 0.952 | 0.967 | 0.94 | 0.882 | 0.845 | 0.823 | 0.449 | 0.329 | 0.214 | 0.204 | 1.04 | 0.959 | 0.948 | 1 | 0.898 | 0.939 | 0.772 | 0.157 | 0.98 | 1 | 1.03 | 0.902 | 0.833 | 0.852
ABC-1 | 0.947 | 0.657 | 0.691 | 0.572 | 0.444 | 0.853 | 0.817 | 0.472 | 0.343 | 0.24 | 0.811 | 1.05 | 0.959 | 0.897 | 0.698 | 0.907 | 0.883 | 0.808 | 0.732 | 0.582 | 0.881 | 0.896 | 0.904 | 1.05 | 0.802 | 1.04 | 0.469 | 0.226 | 0.849 | 0.919 | 1 | 0.793 | 0.412 | 0.682
BEN | 0.809 | 0.848 | 0.594 | 0.44 | 0.387 | 0.951 | 1.01 | 0.593 | 0.291 | 0.198 | 0.96 | 1.07 | 0.975 | 0.925 | 1.04 | 0.892 | 0.794 | 0.617 | 0.473 | 0.335 | 1.05 | 0.933 | 0.984 | 0.988 | 0.843 | 0.96 | 0.799 | 0.811 | 0.922 | 1.05 | 1.02 | – | 0.889 | 0.991
CAL-12T | 0.867 | 0.818 | 0.798 | 0.321 | 0.293 | 0.791 | 0.418 | 0.302 | 0.21 | 0.178 | 0.951 | 0.936 | 0.909 | 0.867 | 0.832 | 0.983 | 0.909 | 0.789 | 0.397 | 0.255 | 1.03 | 0.899 | 0.927 | 0.877 | 0.829 | 0.822 | 0.423 | 0.235 | 0.857 | 0.941 | 0.994 | 0.698 | 0.959 | 0.933
COR-L23 | 0.965 | 0.848 | 1.02 | 0.54 | 0.549 | 0.963 | 0.904 | 0.514 | 0.184 | 0.141 | 1.08 | 1.03 | 0.949 | 0.981 | 0.912 | 1.06 | 0.874 | 0.656 | 0.234 | 0.172 | 1.08 | 1.04 | 0.934 | 1 | 0.946 | 1.03 | 0.415 | 0.0149 | 1.01 | 0.989 | 1.06 | 1.09 | 0.841 | 0.897
COR-L 105 | 0.684 | 0.607 | 0.38 | 0.352 | 0.33 | 0.86 | 0.811 | 0.536 | 0.418 | 0.302 | – | 1.1 | 0.907 | 0.862 | 0.838 | 0.905 | 0.81 | 0.627 | 0.448 | 0.386 | 0.991 | 0.868 | 0.563 | 0.853 | 0.872 | 0.839 | 0.364 | 0.29 | 0.901 | 0.914 | 0.93 | 0.843 | 0.859 | 0.887
Calu-6 | 0.951 | 0.804 | 0.933 | 0.593 | 0.425 | 1.01 | 0.892 | 0.28 | 0.157 | 0.109 | 1.05 | 1.01 | 0.974 | 0.991 | 0.897 | 0.93 | 0.865 | 0.714 | 0.462 | 0.313 | 1 | 0.969 | 0.908 | 0.978 | 0.999 | 0.913 | 0.722 | 0.545 | 0.955 | 1.02 | 1.04 | 1.08 | 0.943 | 0.951

— the supplement of paper PMC10307832
